This passage reports IC50 results from patent EP4800012A1, “COMPOUND ACTING AS PARP7 INHIBITOR” (Dovetree Medicines Unus, Inc., priority 2023, dated 2025).

For experiment [1], the target named is T1, PARP7 (Homo sapiens, UniProt Q7Z3E1).
T1 construct: purchased BPS 80527
T1 sequence (Q7Z3E1 1-657): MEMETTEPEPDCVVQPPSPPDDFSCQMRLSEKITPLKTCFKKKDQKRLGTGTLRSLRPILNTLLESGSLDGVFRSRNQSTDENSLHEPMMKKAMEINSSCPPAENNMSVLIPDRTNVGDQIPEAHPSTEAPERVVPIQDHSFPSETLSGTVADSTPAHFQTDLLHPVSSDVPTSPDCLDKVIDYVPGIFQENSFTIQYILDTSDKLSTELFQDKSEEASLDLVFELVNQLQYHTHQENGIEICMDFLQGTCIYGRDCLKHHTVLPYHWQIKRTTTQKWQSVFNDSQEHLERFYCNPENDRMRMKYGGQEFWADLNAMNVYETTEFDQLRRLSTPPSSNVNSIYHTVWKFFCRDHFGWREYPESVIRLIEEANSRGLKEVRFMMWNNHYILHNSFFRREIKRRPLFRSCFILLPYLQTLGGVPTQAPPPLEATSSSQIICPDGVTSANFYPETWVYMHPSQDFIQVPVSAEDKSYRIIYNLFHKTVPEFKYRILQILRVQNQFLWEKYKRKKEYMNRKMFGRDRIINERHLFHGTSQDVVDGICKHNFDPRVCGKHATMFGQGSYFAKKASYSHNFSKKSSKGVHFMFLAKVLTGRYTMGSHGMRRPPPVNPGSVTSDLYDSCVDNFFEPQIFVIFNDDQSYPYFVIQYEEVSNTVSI
The experiment in a line: Inhibition of the compound on PARP7 protein activity (ADP-ribosylation, chemiluminescence). Type of experiment: biochemical. The note with it: Histone H1 coated plate, Biotin-Labeled NAD+, 2 h at room temperature, chemiluminescence; read-out: PARP7 activity inhibition IC50.

The test system of a further experiment is NCI-H1373 cells. The experiment in a line: Inhibition on NCI-H1373 cell proliferation (Cell-Titer-Glo). The format is cell-based. The following applies: Homo sapiens, read-out: NCI-H1373 cell proliferation inhibition IC50.
The target in experiment [2] is T1, PARP7. The experiment in a line: PARP7 TR-FRET binding inhibition (displacement of probe RBN011147). The following applies: TR-FRET, Biotin-labeled probe RBN011147; read-out: PARP7 binding inhibition IC50. As for the experimental part: The ability of the compound to substitute the probe RBN011147 (Wigle et al., 2020, Cell Chemical Biology 27, 877-887) was tested by a TR-FRET method, and IC50 was calculated to evaluate the binding ability of the compound to PARP7. […]

Setting [3] is: 144 h, NCI-H1373 cells, incubation for 6 days, Cell-Titer-Glo.

Molecules are shown by their SMILES. Like-named read-outs stand apart in the source and are kept apart here.

On to `CC(CCCNC(=O)c1ccc(-c2nc(C(F)(F)F)no2)cc1)Nc1cn[nH]c(=O)c1C(F)(F)F` (stereo not drawn) [Example 78], for which the IC50 on PARP7 [1] was 3 to 10 nM; in the experiment on NCI-H1373 cells (setting [3]), over 3000 nM; on PARP7 [2], 10 to 30 nM.

With `CC(CCCNC(=O)c1ccc(-c2ncc(N(C)C)s2)cc1)Nc1cn[nH]c(=O)c1C(F)(F)F` (stereo not drawn) [Example 57], the IC50 was 3 to 10 nM at PARP7 [1]; 1000 to 3000 nM in the experiment with NCI-H1373 cells (NCI-H1373, 144 h); under 10 nM on PARP7 [2].

`Cc1cnc(-c2cnc(C(=O)NCCCC(C)Nc3cc[nH]c(=O)c3C(F)(F)F)cn2)s1` (stereo not drawn) [Example 30]: the IC50 is 3 to 10 nM at PARP7 [1], over 3000 nM with NCI-H1373 cells (setting [3]) and 30 to 100 nM on PARP7 [2].

In the case of `CC(CCCNC(=O)c1ncc(-c2ncc(C(F)(F)F)cn2)cc1F)Nc1cn[nH]c(=O)c1C(F)(F)F` (stereo not drawn) [Example 73], the values for the IC50 on PARP7 [1], in the experiment with NCI-H1373 cells (setting [3]) and on PARP7 [2] were under 3 nM, 300 to 1000 nM and under 10 nM, respectively.

Turning to `CC(CCCNC(=O)c1cnc(-c2ncc(C(F)(F)F)s2)c(F)c1)Nc1cn[nH]c(=O)c1C(F)(F)F` (stereo not drawn) [Example 184], the results for the IC50 at PARP7 [1], in the experiment with NCI-H1373 cells (setting [3]) and on PARP7 [2] were under 3 nM, 300 to 1000 nM and under 10 nM, respectively.

Take `CC(CCCNC(=O)c1cnc(-c2ncc(C(F)F)s2)cn1)Nc1cc[nH]c(=O)c1C(F)(F)F` (stereo not drawn) [Example 32]: the IC50 on PARP7 [1] is under 3 nM; in the experiment on NCI-H1373 cells (setting [3]) it was over 3000 nM; on PARP7 [2] it was 10 to 30 nM.

On to `CC(CCCNC(=O)c1ccc(-n2cncn2)c(F)c1)Nc1cn[nH]c(=O)c1C(F)(F)F` (stereo not drawn) [Example 48], for which the results for the IC50 at PARP7 [1], in the experiment with NCI-H1373 cells (setting [3]) and at PARP7 [2] were 10 to 30 nM, over 3000 nM and 30 to 100 nM, respectively.

Regarding `CC(CCCNC(=O)c1ncc(-c2ncc(C(F)(F)F)cn2)s1)Nc1cn[nH]c(=O)c1C(F)(F)F` (stereo not drawn) [Example 151], the IC50 on PARP7 [1] was 3 to 10 nM; in the experiment on NCI-H1373 cells (setting [3]), over 3000 nM; on PARP7 [2], 30 to 100 nM.

Turning to `COc1cnc(-c2ccc(C(=O)NCCCC(C)Nc3cn[nH]c(=O)c3C(F)(F)F)c(F)c2)s1` (stereo not drawn) [Example 21], the IC50 at PARP7 [1] was under 3 nM; in the experiment with NCI-H1373 cells (setting [3]) it was 1000 to 3000 nM; on PARP7 [2], under 10 nM.

Take `COc1nc(-c2ccc(C(=O)NCCCC(C)Nc3cn[nH]c(=O)c3C(F)(F)F)cc2)cs1` (stereo not drawn) [Example 65]: the IC50 on PARP7 [1] is 30 to 100 nM; in the experiment with NCI-H1373 cells (setting [3]) it was over 3000 nM; on PARP7 [2], 30 to 100 nM.

Consider `CC(CCCNC(=O)c1ccc(-c2ncc(C(F)(F)F)s2)cc1F)Nc1cn[nH]c(=O)c1C(F)(F)F` (stereo not drawn) [Example 77], for which the IC50 on PARP7 [1] was under 3 nM; in the experiment on NCI-H1373 cells (setting [3]), under 300 nM; on PARP7 [2], under 10 nM.

On to `CC(CCCNC(=O)c1ccc(-c2cc(C(F)(F)F)n(C)n2)cc1)Nc1cn[nH]c(=O)c1C(F)(F)F` (stereo not drawn) [Example 185], for which the IC50 on PARP7 [1] was under 3 nM; with NCI-H1373 cells (setting [3]), 300 to 1000 nM; on PARP7 [2], 30 to 100 nM.

For the compound `CC(CCCNC(=O)c1ccc(-c2ncc(C(F)F)s2)cn1)Nc1cn[nH]c(=O)c1C#N` (stereo not drawn) [Example 28], the values for the IC50 at PARP7 [1], in the experiment on NCI-H1373 cells (setting [3]) and on PARP7 [2] were 30 to 100 nM, over 3000 nM and over 100 nM, respectively.

In the case of `CC(CCCNC(=O)c1ccc(-c2cc(C(F)(F)F)sn2)nc1)Nc1cn[nH]c(=O)c1C(F)(F)F` (stereo not drawn) [Example 207], the results for the IC50 at PARP7 [1], with NCI-H1373 cells (setting [3]) and at PARP7 [2] were under 3 nM, 1000 to 3000 nM and 10 to 30 nM, respectively.

As for `CC(CCCNC(=O)c1ccc(-c2ncc(C(F)(F)F)cn2)cc1)Nc1cn[nH]c(=O)c1C(F)(F)F` (stereo not drawn) [Example 3], the IC50 is under 3 nM on PARP7 [1], 300 to 1000 nM with NCI-H1373 cells (setting [3]) and under 10 nM on PARP7 [2].

Consider `CCCc1cnc(-c2ccc(C(=O)NCCCC(C)Nc3cn[nH]c(=O)c3C(F)(F)F)cc2)s1` (stereo not drawn) [Example 41], for which the values for the IC50 on PARP7 [1], with NCI-H1373 cells (setting [3]) and on PARP7 [2] were under 3 nM, 300 to 1000 nM and 10 to 30 nM, respectively.

For the compound `CC(CCCNC(=O)c1ccc(-c2cscn2)cc1F)Nc1cn[nH]c(=O)c1C(F)(F)F` (stereo not drawn) [Example 179], the IC50 was under 3 nM at PARP7 [1], over 3000 nM in the experiment with NCI-H1373 cells (setting [3]) and 10 to 30 nM on PARP7 [2].

`CC(CCCNC(=O)c1cccc2c1CCN2c1ncc(C(F)(F)F)cn1)Nc1cn[nH]c(=O)c1C(F)(F)F` (stereo not drawn) [Example 5]: the IC50 at PARP7 [1] was under 3 nM; in the experiment on NCI-H1373 cells (setting [3]), over 3000 nM; at PARP7 [2] it was 10 to 30 nM.

As for `CC(CCNC(=O)c1cccc2c1[nH]c(=O)n2-c1ncc(C(F)(F)F)cn1)Nc1cn[nH]c(=O)c1C(F)(F)F` (stereo not drawn) [Example 6], the IC50 on PARP7 [1] is 10 to 30 nM; with NCI-H1373 cells (setting [3]), over 3000 nM; at PARP7 [2], 30 to 100 nM.

As to `CCOc1cnc(-c2ccc(C(=O)NCCCC(C)Nc3cn[nH]c(=O)c3C(F)(F)F)cc2)s1` (stereo not drawn) [Example 40], the results for the IC50 on PARP7 [1], in the experiment with NCI-H1373 cells (setting [3]) and at PARP7 [2] were under 3 nM, over 3000 nM and 10 to 30 nM, respectively.

On to `CC(CCCNC(=O)c1ccc(-c2ncc(C3CCCC3)s2)cc1)Nc1cn[nH]c(=O)c1C(F)(F)F` (stereo not drawn) [Example 155], for which the IC50 on PARP7 [1] is under 3 nM; in the experiment with NCI-H1373 cells (setting [3]), 1000 to 3000 nM; at PARP7 [2] it was 10 to 30 nM.

`CC(CCCNC(=O)c1ccc(-c2nc(C(F)(F)F)cs2)cc1)Nc1cn[nH]c(=O)c1C(F)(F)F` (stereo not drawn) [Example 81]: the IC50 is 30 to 100 nM at PARP7 [1], over 3000 nM with NCI-H1373 cells (setting [3]) and 30 to 100 nM on PARP7 [2].

Regarding `CC(CCCNC(=O)c1ccc(-c2ccc(=O)n(C)n2)cc1)Nc1cn[nH]c(=O)c1C(F)(F)F` (stereo not drawn) [Example 64], the IC50 was 10 to 30 nM on PARP7 [1], over 3000 nM with NCI-H1373 cells (setting [3]) and over 100 nM at PARP7 [2].

As for `CC(CCCNC(=O)c1cnc(-c2ncc(C(F)F)s2)cn1)Nc1cn[nH]c(=O)c1C(F)(F)F` (stereo not drawn) [Example 25], the IC50 on PARP7 [1] is under 3 nM; with NCI-H1373 cells (setting [3]) it was 1000 to 3000 nM; on PARP7 [2], under 10 nM.

As for `CC(CCCNC(=O)c1ccc(-c2ccc(-c3cnco3)cn2)cc1)Nc1cn[nH]c(=O)c1C(F)(F)F` (stereo not drawn) [Example 188], the IC50 on PARP7 [1] was under 3 nM; in the experiment on NCI-H1373 cells (setting [3]) it was over 3000 nM; on PARP7 [2], 10 to 30 nM.

Regarding `CC(CCCNC(=O)c1ccc2c(=O)n(C)cnc2c1)Nc1cn[nH]c(=O)c1C(F)(F)F` (stereo not drawn) [Example 59], the figures for the IC50 at PARP7 [1], with NCI-H1373 cells (setting [3]) and at PARP7 [2] were 30 to 100 nM, over 3000 nM and 30 to 100 nM, respectively.

`Cc1c(CCC(=O)Nc2ccc(-c3ncc(C(F)(F)F)cn3)cn2)c[nH]c(=O)c1C(F)(F)F` [Example 13]: the IC50 is under 3 nM at PARP7 [1], over 3000 nM in the experiment on NCI-H1373 cells (setting [3]) and 30 to 100 nM on PARP7 [2].

Consider `CC(CCCNC(=O)c1ccc(-n2cc(C(F)(F)F)cn2)cc1)Nc1cn[nH]c(=O)c1C(F)(F)F` (stereo not drawn) [Example 61], for which the IC50 was under 3 nM on PARP7 [1], under 300 nM in the experiment on NCI-H1373 cells (setting [3]) and under 10 nM at PARP7 [2].

For the compound `CC(CCCNC(=O)c1ncc(-c2ncc(C(F)F)s2)cc1F)Nc1cn[nH]c(=O)c1C(F)(F)F` (stereo not drawn) [Example 74], the IC50 on PARP7 [1] was under 3 nM; with NCI-H1373 cells (setting [3]) it was over 3000 nM; at PARP7 [2] it was under 10 nM.

For the compound `CC(CCCNC(=O)c1ccc(-c2ncc(C(F)(F)F)cn2)cc1F)Nc1cn[nH]c(=O)c1C(F)(F)F` (stereo not drawn) [Example 2], the IC50 is under 3 nM on PARP7 [1], 300 to 1000 nM with NCI-H1373 cells (setting [3]) and under 10 nM at PARP7 [2].
